# In the Kinase Knowledgebase extract (Sharma et al. 2016):
# Biological target: MAPK14 (UniProt Q16539)
# Experiment: Inhibition of MAPK14 Kinase Activity
# Chain of MAPK14 (Q16539 whole entry, looked up): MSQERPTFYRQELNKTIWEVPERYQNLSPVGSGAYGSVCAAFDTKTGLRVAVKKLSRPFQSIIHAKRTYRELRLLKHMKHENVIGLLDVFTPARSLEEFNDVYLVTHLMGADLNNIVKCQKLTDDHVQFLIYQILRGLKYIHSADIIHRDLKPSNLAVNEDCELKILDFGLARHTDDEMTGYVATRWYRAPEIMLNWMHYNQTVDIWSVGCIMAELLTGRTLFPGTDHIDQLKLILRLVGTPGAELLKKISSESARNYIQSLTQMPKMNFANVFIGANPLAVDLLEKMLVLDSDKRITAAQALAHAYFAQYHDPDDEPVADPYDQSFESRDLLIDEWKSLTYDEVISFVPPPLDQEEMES
row,SMILES,IC50 [nM]
1,COc1c(NC(=O)Nc2ccc(Oc3cc(C)nc(C)n3)c3ccccc23)cc(C(F)(F)F)cc1NS(C)(=O)=O,< 1000
2,COc1ccc(OC(F)(F)F)cc1NC(=O)Nc1ccc(Oc2cc(C)nc(NCCN(C)C)n2)c2ccccc12,< 1000
3,COc1ccc(C(F)(F)F)cc1NC(=O)Nc1ccc(Oc2cc(C)nc(NCC(O)CO)n2)c2ccccc12 (centres undefined),< 1000
4,COc1ccc(C(F)(F)C(F)(F)F)cc1NC(=O)Nc1ccc(Oc2cc(C)nc(N)n2)c2ccccc12,< 1000
5,COc1ccc(CC(F)(F)F)cc1NC(=O)Nc1ccc(Oc2cc(C)nc(N)n2)c2ccccc12,< 1000
6,COc1ccc(C(C)C(F)(F)F)cc1NC(=O)Nc1ccc(Oc2cc(C)nc(N)n2)c2ccccc12 (centres undefined),< 1000
7,COCCNc1nc(C)cc(Oc2ccc(NC(=O)Nc3cc(OC(F)(F)F)ccc3OC)c3ccccc23)n1,< 1000
8,COc1ccc(OC(F)(F)F)cc1NC(=O)Nc1ccc(Oc2cc(C)nc(NCCN3CCCC3)n2)c2ccccc12,< 1000
9,COc1ccc(OC(F)(F)F)cc1NC(=O)Nc1ccc(Oc2cc(C)nc(OCCn3ccnc3)n2)c2ccccc12,< 1000
10,COc1ccc(OC(F)(F)F)cc1NC(=O)Nc1ccc(Oc2cc(C)nc(CN(C)C)n2)c2ccccc12,< 1000
11,COc1ccc(CC(F)(F)F)cc1NC(=O)Nc1ccc(Oc2cc(C)nc(OCC3CCN(C)CC3)n2)c2ccccc12,< 1000
12,COc1ccc(C(C(F)(F)F)C(F)(F)F)cc1NC(=O)Nc1ccc(Oc2cc(C)nc(NCCN(C)C)n2)c2ccccc12,< 1000
13,COCCNc1nc(C)cc(Oc2ccc(NC(=O)Nc3cc(C(F)(F)F)ccc3OC)c3ccccc23)n1,< 1000
14,COc1ccc(C(C(F)(F)F)C(F)(F)F)cc1NC(=O)Nc1ccc(Oc2cc(C)nc(N)n2)c2ccccc12,< 1000
15,CNc1nc(C)cc(Oc2ccc(NC(=O)Nc3cc(OC(F)(F)F)ccc3OC)c3ccccc23)n1,< 1000
16,CCNc1nc(C)cc(Oc2ccc(NC(=O)Nc3cc(OC(F)(F)F)ccc3OC)c3ccccc23)n1,< 1000
17,COc1ccc(CC(F)(F)F)cc1NC(=O)Nc1ccc(Oc2cc(C)nc(NCCCN(C)C)n2)c2ccccc12,< 1000
18,COc1ccc(C(F)(F)F)cc1NC(=O)Nc1ccc(Oc2cc(C)nc(NCCN(C)C)n2)c2ccccc12,< 1000
19,COCC(C)Nc1nc(C)cc(Oc2ccc(NC(=O)Nc3cc(C(F)(F)F)ccc3OC)c3ccccc23)n1 (centres undefined),< 1000

# Continued, values first:
row,IC50 [nM],SMILES
1,< 1000,COc1nc(C)cc(Oc2ccc(NC(=O)Nc3cc(C(F)(F)F)ccc3OC)c3ccccc23)n1
2,< 1000,COc1ccc(C(F)(F)F)cc1NC(=O)Nc1ccc(Oc2cc(C)nc(NC3CC3)n2)c2ccccc12
3,< 1000,COc1ccc(C(F)(F)F)cc1NC(=O)Nc1ccc(Oc2cc(C)nc(C)n2)c2ccccc12
4,< 1000,COc1ccc(C(F)(F)F)cc1NC(=O)Nc1ccc(Oc2cc(C)nc(NC(C)C)n2)c2ccccc12
5,< 1000,COc1ccc(C(F)(F)F)cc1NC(=O)Nc1ccc(Oc2cc(C)nc(NCC3CCCO3)n2)c2ccccc12 (centres undefined)
6,< 1000,COc1ccc(OC(F)(F)F)cc1NC(=O)Nc1ccc(Oc2cc(C)nc(CN3CCN(C)CC3)n2)c2ccccc12
7,< 1000,CCNc1nc(C)cc(Oc2ccc(NC(=O)Nc3cc(C(F)(F)F)ccc3OC)c3ccccc23)n1
8,< 1000,COc1ccc(OC(F)(F)F)cc1NC(=O)Nc1ccc(Oc2cc(C)nc(NCCCN3CCOCC3)n2)c2ccccc12
9,< 1000,COc1ccc(C(F)(F)F)cc1NC(=O)Nc1ccc(Oc2cc(C)nc(NCCN3CCCC3)n2)c2ccccc12
10,< 1000,COc1ccc(CC(F)(F)F)cc1NC(=O)Nc1ccc(Oc2cc(C)nc(NCCCN3CCOCC3)n2)c2ccccc12
11,< 1000,COc1ccc(C(C(F)(F)F)C(F)(F)F)cc1NC(=O)Nc1ccc(Oc2cc(C)nc(CN3CCOCC3)n2)c2ccccc12
12,< 1000,COc1ccc(OC(F)(F)F)cc1NC(=O)Nc1ccc(Oc2cc(C)nc(CN3CCCC3)n2)c2ccccc12
13,< 1000,COc1ccc(C(F)(F)F)cc1NC(=O)Nc1ccc(Oc2cc(C)nc(N)n2)c2ccccc12
14,< 1000,COc1ccc(C(F)(F)F)cc1NC(=O)Nc1ccc(Oc2cc(C)nc(CN(C)C)n2)c2ccccc12
15,< 1000,COc1ccc(C(F)(F)F)cc1NC(=O)Nc1ccc(Oc2cc(C)nc(CN3CCOCC3)n2)c2ccccc12
16,< 1000,COc1ccc(OC(F)(F)F)cc1NC(=O)Nc1ccc(Oc2cc(C)nc(CN3CCOCC3)n2)c2ccccc12
17,< 1000,CNc1nc(C)cc(Oc2ccc(NC(=O)Nc3cc(C(F)(F)F)ccc3OC)c3ccccc23)n1
18,< 1000,COc1ccc(C(F)(F)F)cc1NC(=O)Nc1ccc(Oc2cc(C)nc(NCCN3CCOCC3)n2)c2ccccc12
19,< 1000,COc1ccc(C(F)(F)F)cc1NC(=O)Nc1ccc(Oc2cc(C)nc(CN3CCN(C)CC3)n2)c2ccccc12
20,< 1000,COc1ccc(C(F)(F)F)cc1NC(=O)Nc1ccc(Oc2cc(C)nc(NCC3CC3)n2)c2ccccc12
